Results published in ChEMBL document CHEMBL5724914, “Linking interpersonal differences in gut microbiota composition and drug biotransformation activity” (2024).

Experiments:
[1] = human gut metagenome, 24 h, 2 µM
[2] = (§1) The drug is tested on WLS-220 corresponding to human gut metagenome with ENA study accession number: PRJEB37062 and ENA sample accession number: ERS12561769 for biotransformation under anaerobic condition. The drug concentrations were measured over 9 timepoints collected between 0 and 24 hours of incubation by liquid-chromatography-coupled mass spectrometry (LC–MS); conditions: 2 µM
[3] = as §1, with “Z-030” for “WLS-220”, “mouse” for “human”, “ERS12561829” for “ERS12561769”; conditions: 2 µM
[4] = as §1, with “Z-010” for “WLS-220”, “to” for “to human gut”, “ERS12561810” for “ERS12561769”; conditions: 2 µM
[5] = as §1, with “Z-007” for “WLS-220”, “rat” for “human”, “ERS12561807” for “ERS12561769”; conditions: 2 µM
[6] = human gut metagenome, 24 h, 2 µM; remark: listed apart in the source
[7] = as §1, with “WLS-027” for “WLS-220”, “ERS12561744” for “ERS12561769”; conditions: 2 µM
[8] = as §1, with “WLS-039” for “WLS-220”, “ERS12561746” for “ERS12561769”; conditions: 2 µM
[9] = as §1, with “Z-014” for “WLS-220”, “rat” for “human”, “ERS12561814” for “ERS12561769”; conditions: 2 µM
[10] = human gut metagenome, 24 h, 2 µM; remark: listed apart in the source
[11] = as §1, with “WLS-052” for “WLS-220”, “ERS12561747” for “ERS12561769”; conditions: 2 µM
[12] = human gut metagenome, 24 h, 2 µM; remark: listed apart in the source
[13] = human gut metagenome, 24 h, 2 µM; remark: listed apart in the source
[14] = human gut metagenome, 24 h, 2 µM; remark: listed apart in the source
[15] = as §1, with “WLS-082” for “WLS-220”, “ERS12561751” for “ERS12561769”; conditions: 2 µM
[16] = human gut metagenome, 24 h, 2 µM; remark: listed apart in the source
[17] = human gut metagenome, 24 h, 2 µM; remark: listed apart in the source
[18] = as §1, with “Z-006” for “WLS-220”, “mouse” for “human”, “ERS12561806” for “ERS12561769”; conditions: 2 µM
[19] = as §1, with “WLS-240” for “WLS-220”, “ERS12561773” for “ERS12561769”; conditions: 2 µM
[20] = as §1, with “Z-020” for “WLS-220”, “rabbit” for “human”, “ERS12561819” for “ERS12561769”; conditions: 2 µM
Note: call rule not given here.

Compound	Bacterial Biotransformation [1]	Bacterial Biotransformation [2]	Bacterial Biotransformation [3]	Bacterial Biotransformation [4]	Bacterial Biotransformation [5]	Bacterial Biotransformation [6]	Bacterial Biotransformation [7]	Bacterial Biotransformation [8]	Bacterial Biotransformation [9]	Bacterial Biotransformation [10]	Bacterial Biotransformation [11]	Bacterial Biotransformation [12]	Bacterial Biotransformation [13]	Bacterial Biotransformation [14]	Bacterial Biotransformation [15]	Bacterial Biotransformation [16]	Bacterial Biotransformation [17]	Bacterial Biotransformation [18]	Bacterial Biotransformation [19]	Bacterial Biotransformation [20]
Nc1nc(N)nc(-c2cc(Cl)ccc2Cl)n1.O=C(O)/C=C\C(=O)O [IRSOGLADINE MALEATE]	Compound metabolized	Compound NOT metabolized	Compound NOT metabolized	Compound NOT metabolized	Compound NOT metabolized	Compound NOT metabolized	Compound NOT metabolized	Compound NOT metabolized	Compound NOT metabolized	Compound NOT metabolized	Compound NOT metabolized	Compound NOT metabolized	Compound NOT metabolized	Compound NOT metabolized	Compound NOT metabolized	Compound NOT metabolized	Compound NOT metabolized	Compound NOT metabolized	Compound NOT metabolized	Compound NOT metabolized
CN1CCC(=C2c3ccccc3CC(=O)c3sccc32)CC1.O=C(O)/C=C/C(=O)O [KETOTIFEN FUMARATE]	Compound metabolized	Compound metabolized	Compound NOT metabolized	Compound NOT metabolized	Compound NOT metabolized	Compound metabolized	Compound NOT metabolized	Compound NOT metabolized	Compound NOT metabolized	Compound NOT metabolized	Compound NOT metabolized	Compound NOT metabolized	Compound metabolized	Compound NOT metabolized	Compound NOT metabolized	Compound NOT metabolized	Compound NOT metabolized	Compound NOT metabolized	Compound metabolized	Compound NOT metabolized
CC[C@H](C)C(=O)O[C@H]1CCC=C2C=C[C@H](C)[C@H](CC[C@@H]3C[C@@H](O)CC(=O)O3)[C@H]21 [MEVASTATIN]	Compound metabolized	Compound metabolized	Compound metabolized	Compound NOT metabolized	Compound NOT metabolized	Compound metabolized	Compound metabolized	Compound metabolized	Compound NOT metabolized	Compound metabolized	Compound metabolized	Compound NOT metabolized	Compound metabolized	Compound NOT metabolized	Compound metabolized	Compound NOT metabolized	Compound metabolized	Compound NOT metabolized	Compound metabolized	Compound NOT metabolized
COc1ccc2cc([C@H](C)C(=O)O)ccc2c1 [NAPROXEN]	Compound metabolized	Compound metabolized	Compound NOT metabolized	Compound NOT metabolized	Compound NOT metabolized	Compound metabolized	Compound metabolized	Compound metabolized	Compound NOT metabolized	Compound NOT metabolized	Compound metabolized	Compound metabolized	Compound NOT metabolized	Compound metabolized	Compound metabolized	Compound NOT metabolized	Compound NOT metabolized	Compound NOT metabolized	Compound metabolized	Compound NOT metabolized
C#C[C@]1(OC(C)=O)CC[C@H]2[C@@H]3CCC4=C/C(=N/O)CC[C@@H]4[C@H]3CC[C@@]21CC [NORGESTIMATE]	Compound metabolized	Compound metabolized	Compound metabolized	Compound NOT metabolized	Compound NOT metabolized	Compound metabolized	Compound metabolized	Compound metabolized	Compound NOT metabolized	Compound NOT metabolized	Compound metabolized	Compound metabolized	Compound metabolized	Compound NOT metabolized	Compound metabolized	Compound NOT metabolized	Compound metabolized	Compound NOT metabolized	Compound metabolized	Compound NOT metabolized
COc1ccnc(C[S+]([O-])c2nc3ccc(OC(F)F)cc3[nH]2)c1OC (stereo not given) [PANTOPRAZOLE]	Compound metabolized	Compound metabolized	Compound metabolized	Compound metabolized	Compound NOT metabolized	Compound metabolized	Compound metabolized	Compound metabolized	Compound NOT metabolized	Compound metabolized	Compound metabolized	Compound metabolized	Compound metabolized	Compound NOT metabolized	Compound metabolized	Compound metabolized	Compound metabolized	Compound metabolized	Compound metabolized	Compound metabolized
CN(CCOc1ccc(CC2SC(=O)NC2=O)cc1)c1ccccn1.O=C(O)/C=C\C(=O)O (stereo not given) [ROSIGLITAZONE MALEATE]	Compound metabolized	Compound metabolized	Compound NOT metabolized	Compound NOT metabolized	Compound NOT metabolized	Compound metabolized	Compound metabolized	Compound NOT metabolized	Compound NOT metabolized	Compound NOT metabolized	Compound NOT metabolized	Compound metabolized	Compound metabolized	Compound NOT metabolized	Compound NOT metabolized	Compound NOT metabolized	Compound NOT metabolized	Compound NOT metabolized	Compound metabolized	Compound NOT metabolized
CC(C)c1nc(N(C)S(C)(=O)=O)nc(-c2ccc(F)cc2)c1/C=C/[C@@H](O)C[C@@H](O)CC(=O)[O-].CC(C)c1nc(N(C)S(C)(=O)=O)nc(-c2ccc(F)cc2)c1/C=C/[C@@H](O)C[C@@H](O)CC(=O)[O-].[Ca+2] [ROSUVASTATIN CALCIUM]	Compound metabolized	Compound metabolized	Compound NOT metabolized	Compound NOT metabolized	Compound NOT metabolized	Compound NOT metabolized	Compound metabolized	Compound metabolized	Compound NOT metabolized	Compound NOT metabolized	Compound metabolized	Compound metabolized	Compound NOT metabolized	Compound NOT metabolized	Compound metabolized	Compound metabolized	Compound metabolized	Compound NOT metabolized	Compound metabolized	Compound NOT metabolized
